Like-named read-outs stand apart in the source and are kept apart here.
Biological target: T1, MCH receptor (Homo sapiens, UniProt Q99705)
T1 construct: expressed in transfected cells; host or cells: CHO cells
Assay: MCH Receptor Binding Assay ([125I]-MCH SPA, membranes from CHO cells expressing the MCH receptor)
Description: MCH Receptor Binding Assay:
Membranes from CHO cells expressing the MCH receptor were prepared by lysing cells with 5 mM HEPES for 15 min at 4 C. Cell lysates were centrifuged ([…], 15 min) and the pellet was resuspended in 5 mM HEPES. For each 96-well plate (Microlite, Dynex Technologies), 1 mg of cell membranes were incubated with 10 mg of wheat germ agglutinin SPA beads (Amersham) for 5 min at 4 C in a volume of 10 ml of binding buffer (25 mM HEPES, 10 mM MGCl2, 10 mM NaCl, 5 mM MnCl2, 0.1% BSA). The membrane/bead mixture was centrifuged (1500×g, 3.5 min), the supernatant was aspirated, and the pellet was resuspended in 10 ml binding buffer. The centrifugation, aspiration and resuspension were then repeated. The membrane/bead mixture (100 μl) was then added to 96-well plates containing 50 μl of 500 pM [^125I]-MCH (NEN) and […] of the appropriate concentration of compound (4× the desired final concentration). Nonspecific binding was determined by including 1 μM MCH in the binding reaction. The binding reaction was incubated at room temperature for 2 h. Plates were then analyzed in a TOPCOUNT microplate scintillation counter (Packard). Data was analyzed and Ki values were determined using GraphPad Prim.

[1] = CHO cell membranes, [125I]-MCH, read-out: MCH Receptor Activity (Ki rating)
[2] = unit inferred, read-out: Ki values

T1 sequence (Q99705 whole entry): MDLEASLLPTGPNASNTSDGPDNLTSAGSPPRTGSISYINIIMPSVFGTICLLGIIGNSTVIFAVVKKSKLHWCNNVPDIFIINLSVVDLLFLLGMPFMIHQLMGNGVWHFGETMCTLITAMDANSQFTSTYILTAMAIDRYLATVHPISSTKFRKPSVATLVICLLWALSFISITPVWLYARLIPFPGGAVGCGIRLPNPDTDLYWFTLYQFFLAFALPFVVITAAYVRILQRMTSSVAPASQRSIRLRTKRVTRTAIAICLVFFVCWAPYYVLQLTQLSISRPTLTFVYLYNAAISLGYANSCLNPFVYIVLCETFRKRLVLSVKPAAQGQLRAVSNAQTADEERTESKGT

Ki [1] [nM] | Ki [2] [nM] | Compound
6 to 10 | – | CCCOc1ccsc1C(=O)N1CCC(N2CCN([C@@H](C)c3ccc(-c4cc(Cl)cc(Cl)c4)cc3)[C@H](C)C2)CC1 [Example 6]
6 to 10 | – | CCCOc1cscc1C(=O)N1CCC(N2CCN([C@@H](C)c3ccc(-c4cc(Cl)cc(Cl)c4)cc3)[C@H](C)C2)CC1 [Example 19]
10 to 15 | – | CCCOc1ccsc1C(=O)N1CCC(N2CCN([C@@H](C)c3ccc(-c4ccc(F)c(Cl)c4)cc3)[C@H](C)C2)CC1 [Example 9]
10 to 15 | – | CCOc1ccsc1C(=O)N1CCC(N2CCN([C@@H](C)c3ccc(-c4cc(Cl)cc(Cl)c4)cc3)[C@H](C)C2)CC1 [Example 2]
10 to 15 | – | CCCCOc1ccsc1C(=O)N1CCC(N2CCN([C@@H](C)c3ccc(-c4cc(Cl)cc(Cl)c4)cc3)[C@H](C)C2)CC1 [Example 7]
6 to 10 | – | C[C@@H]1CN(C2CCN(C(=O)c3sccc3OCC3CC3)CC2)CCN1[C@@H](C)c1ccc(-c2cc(Cl)cc(Cl)c2)cc1 [Example 12]
6 to 10 | – | CCCOc1ccsc1C(=O)N1CCC(C)(N2CCN([C@@H](C)c3ccc(-c4cc(Cl)cc(Cl)c4)cc3)[C@H](C)C2)CC1 [Example 3]
– | 6 | CCCOc1cscc1C(=O)N1CCC(N2CCN([C@@H](C)c3ccc(-c4cc(Cl)cc(Cl)c4)cc3)[C@H](C)C2)CC1 [Example 20]
6 to 10 | – | CCCCOc1ccsc1C(=O)N1CCC(N2CCN([C@@H](C)c3ccc(-c4cc(Cl)cc(Cl)c4)cc3)[C@H](C)C2)CC1 [Example 8]

The remaining lines, values behind:

Compound | Ki [1] [nM] | Ki [2] [nM]
CCOc1ccsc1C(=O)N1CCC(N2CCN([C@@H](C)c3ccc(-c4cc(Cl)cc(Cl)c4)cc3)[C@H](C)C2)CC1C (stereo partly drawn) [Example 17] | > 15 | –
CCOc1ccsc1C(=O)N1CCC(N2C[C@@H](C)N([C@@H](C)c3ccc(-c4cc(Cl)cc(Cl)c4)cc3)[C@H](C)C2)CC1 [Example 18] | 10 to 15 | –
C[C@@H]1CN(C2CCN(C(=O)c3sccc3OCC3CC3)CC2)C[C@@H](C)N1Cc1ccc(-c2cc(Cl)cc(Cl)c2)cc1 [Example 11] | > 15 | –
C[C@@H]1CN(C2(C)CCN(C(=O)c3sccc3OCC3CC3)CC2)CCN1[C@@H](C)c1ccc(-c2cc(Cl)cc(Cl)c2)cc1 [Example 5] | 6 to 10 | –
CCOc1ccsc1C(=O)N1CCC(N2CCN([C@@H](C)c3ccc(-c4ccc(Cl)s4)cc3)[C@H](C)C2)CC1 [Example 10] | > 15 | –
C[C@@H]1CN(C2(C)CCN(C(=O)c3sccc3OCC3CC3)CC2)CCN1[C@@H](C)c1ccc(-c2ccncc2)cc1 [Example 15] | 6 to 10 | –
CCOc1ccsc1C(=O)N1CCC(N2CCN([C@@H](C)c3ccc(-c4cc(Cl)cc(Cl)c4)cc3)[C@H](C)C2)CC1C (stereo partly drawn) [Example 16] | 6 to 10 | 6
CCCOc1ccsc1C(=O)N1CCC(N2CCN([C@@H](C)c3ccc(CCc4ccc(Cl)cc4)cc3)[C@H](C)C2)CC1 [Example 4] | 10 to 15 | –
CCCOc1ccsc1C(=O)N1CCC(N2CCN([C@@H](C)c3ccc(CCc4ccc5c(c4)OCO5)cc3)[C@H](C)C2)CC1 [Example 1] | 10 to 15 | –
CCOc1ccsc1C(=O)N1CCC(N2CCN([C@@H](C)c3ccc(CCc4ccc(C(F)(F)F)cc4)cc3)[C@H](C)C2)CC1 [Example 13] | 6 to 10 | –
CCCOc1ccsc1C(=O)N1CCC(N2CCN([C@@H](C)c3ccc(CCc4ccc(C(F)(F)F)cc4)cc3)[C@H](C)C2)CC1 [Example 14] | 6 to 10 | –

From patent US7345042B2, “MCH antagonists for the treatment of obesity” (Schering Corporation, priority 2003, dated 2008)
